The source made the active and inactive calls.
Legend:
[1] = target: Induced myeloid leukemia cell differentiation protein Mcl-1 (Homo sapiens, UniProt Q07820); assay type: functional
[2] = target: T1, Replicative DNA helicase DnaB (Mycobacterium tuberculosis, UniProt P9WMR3); experiment: DnaB intein splicing inhibitors, dose response, biochemical, cell-free fluorescence (AID 449749); assay type: functional
T1 sequence (P9WMR3 whole entry): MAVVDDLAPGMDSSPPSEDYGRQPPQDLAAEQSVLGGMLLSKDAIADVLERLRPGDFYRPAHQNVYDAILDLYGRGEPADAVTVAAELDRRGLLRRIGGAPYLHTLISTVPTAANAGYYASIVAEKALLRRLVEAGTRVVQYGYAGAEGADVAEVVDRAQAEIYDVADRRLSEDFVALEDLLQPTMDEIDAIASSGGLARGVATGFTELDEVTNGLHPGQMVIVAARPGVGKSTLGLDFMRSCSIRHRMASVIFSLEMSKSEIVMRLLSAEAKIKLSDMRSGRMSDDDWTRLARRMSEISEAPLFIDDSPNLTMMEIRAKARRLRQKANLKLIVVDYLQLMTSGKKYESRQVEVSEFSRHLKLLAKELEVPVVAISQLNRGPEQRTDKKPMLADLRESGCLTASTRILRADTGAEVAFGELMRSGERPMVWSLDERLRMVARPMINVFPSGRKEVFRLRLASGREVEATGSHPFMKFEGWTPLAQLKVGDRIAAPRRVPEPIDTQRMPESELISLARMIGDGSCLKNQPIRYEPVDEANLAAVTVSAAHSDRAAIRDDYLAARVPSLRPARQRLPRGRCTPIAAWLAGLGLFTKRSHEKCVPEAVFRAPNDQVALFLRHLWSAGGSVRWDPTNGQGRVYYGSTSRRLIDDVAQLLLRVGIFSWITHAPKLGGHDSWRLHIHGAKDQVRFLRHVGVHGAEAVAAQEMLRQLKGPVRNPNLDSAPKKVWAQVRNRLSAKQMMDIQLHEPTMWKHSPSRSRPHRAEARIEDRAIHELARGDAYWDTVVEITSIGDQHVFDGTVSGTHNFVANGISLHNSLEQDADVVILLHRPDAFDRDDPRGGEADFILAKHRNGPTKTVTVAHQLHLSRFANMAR

Protein RecA = target: T2, Protein RecA (Mycobacterium tuberculosis, UniProt P9WHJ3); experiment: Fluorescence Cell-Free Homogeneous Dose Retest to Identify Inhibitors of RecA-Intein Splicing Activity. [Related pubchem assays (depositor defined):AID2097, AID2223, AID489010, AID492950]; assay type: functional
T2 sequence (P9WHJ3 whole entry): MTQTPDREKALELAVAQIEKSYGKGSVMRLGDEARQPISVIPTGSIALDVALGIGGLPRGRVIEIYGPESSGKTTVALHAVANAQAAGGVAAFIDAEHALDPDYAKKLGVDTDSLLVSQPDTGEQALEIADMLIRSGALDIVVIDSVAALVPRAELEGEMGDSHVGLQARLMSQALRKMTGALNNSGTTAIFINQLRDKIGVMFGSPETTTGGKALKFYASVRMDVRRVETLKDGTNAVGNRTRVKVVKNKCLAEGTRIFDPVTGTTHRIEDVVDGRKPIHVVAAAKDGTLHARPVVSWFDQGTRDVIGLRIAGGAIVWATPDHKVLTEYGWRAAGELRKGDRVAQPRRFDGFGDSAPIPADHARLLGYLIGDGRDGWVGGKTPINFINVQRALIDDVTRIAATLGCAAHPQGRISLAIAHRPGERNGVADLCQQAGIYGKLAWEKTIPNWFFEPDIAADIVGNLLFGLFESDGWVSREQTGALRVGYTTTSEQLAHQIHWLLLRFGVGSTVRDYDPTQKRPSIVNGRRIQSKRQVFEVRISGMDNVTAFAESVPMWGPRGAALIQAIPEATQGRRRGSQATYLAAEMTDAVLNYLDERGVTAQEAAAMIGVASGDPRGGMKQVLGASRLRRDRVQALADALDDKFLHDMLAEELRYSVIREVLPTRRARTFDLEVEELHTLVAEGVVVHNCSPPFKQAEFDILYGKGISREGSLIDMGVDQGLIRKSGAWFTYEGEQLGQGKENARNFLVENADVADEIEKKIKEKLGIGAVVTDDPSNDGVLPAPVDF

Leucine aminopeptidase = target: T3, Leucine aminopeptidase (Plasmodium falciparum 3D7, UniProt Q8IL11); experiment: P. falciparum M17LAP inhibitors, primary screen, biochemical, fluorogenic H-Leu-NHMec substrate, 1536-well (AID 1619); assay type: functional
T3 sequence (Q8IL11 whole entry): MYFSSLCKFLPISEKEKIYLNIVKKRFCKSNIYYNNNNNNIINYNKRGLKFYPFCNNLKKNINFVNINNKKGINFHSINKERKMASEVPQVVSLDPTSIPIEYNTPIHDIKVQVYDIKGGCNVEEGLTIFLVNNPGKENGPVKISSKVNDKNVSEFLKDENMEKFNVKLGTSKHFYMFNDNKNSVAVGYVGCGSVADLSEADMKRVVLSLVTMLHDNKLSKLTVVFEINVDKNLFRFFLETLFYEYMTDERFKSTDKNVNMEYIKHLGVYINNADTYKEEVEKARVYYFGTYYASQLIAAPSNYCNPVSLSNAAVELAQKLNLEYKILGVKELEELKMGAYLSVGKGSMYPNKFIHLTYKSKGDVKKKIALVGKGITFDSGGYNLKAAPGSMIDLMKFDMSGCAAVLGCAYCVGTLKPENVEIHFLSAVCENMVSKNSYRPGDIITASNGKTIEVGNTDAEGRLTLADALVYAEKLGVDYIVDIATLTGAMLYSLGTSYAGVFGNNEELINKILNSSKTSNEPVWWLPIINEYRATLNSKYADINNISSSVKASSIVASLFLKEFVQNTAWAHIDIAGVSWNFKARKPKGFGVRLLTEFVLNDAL

[3] = microbe, parasite or virus in culture; assay type: functional; details: Mycobacterium tuberculosis
Aminopeptidase N = target: T4, Aminopeptidase N (Plasmodium falciparum FcB1/Columbia, UniProt O96935); experiment: malaria alanyl aminopeptidase activity blockers – biochemical, fluorogenic H-Leu-NHMec substrate, 1536-well (AID 1445); design: species or system Plasmodium falciparum 3D7, 3D7
T4 sequence (O96935 whole entry): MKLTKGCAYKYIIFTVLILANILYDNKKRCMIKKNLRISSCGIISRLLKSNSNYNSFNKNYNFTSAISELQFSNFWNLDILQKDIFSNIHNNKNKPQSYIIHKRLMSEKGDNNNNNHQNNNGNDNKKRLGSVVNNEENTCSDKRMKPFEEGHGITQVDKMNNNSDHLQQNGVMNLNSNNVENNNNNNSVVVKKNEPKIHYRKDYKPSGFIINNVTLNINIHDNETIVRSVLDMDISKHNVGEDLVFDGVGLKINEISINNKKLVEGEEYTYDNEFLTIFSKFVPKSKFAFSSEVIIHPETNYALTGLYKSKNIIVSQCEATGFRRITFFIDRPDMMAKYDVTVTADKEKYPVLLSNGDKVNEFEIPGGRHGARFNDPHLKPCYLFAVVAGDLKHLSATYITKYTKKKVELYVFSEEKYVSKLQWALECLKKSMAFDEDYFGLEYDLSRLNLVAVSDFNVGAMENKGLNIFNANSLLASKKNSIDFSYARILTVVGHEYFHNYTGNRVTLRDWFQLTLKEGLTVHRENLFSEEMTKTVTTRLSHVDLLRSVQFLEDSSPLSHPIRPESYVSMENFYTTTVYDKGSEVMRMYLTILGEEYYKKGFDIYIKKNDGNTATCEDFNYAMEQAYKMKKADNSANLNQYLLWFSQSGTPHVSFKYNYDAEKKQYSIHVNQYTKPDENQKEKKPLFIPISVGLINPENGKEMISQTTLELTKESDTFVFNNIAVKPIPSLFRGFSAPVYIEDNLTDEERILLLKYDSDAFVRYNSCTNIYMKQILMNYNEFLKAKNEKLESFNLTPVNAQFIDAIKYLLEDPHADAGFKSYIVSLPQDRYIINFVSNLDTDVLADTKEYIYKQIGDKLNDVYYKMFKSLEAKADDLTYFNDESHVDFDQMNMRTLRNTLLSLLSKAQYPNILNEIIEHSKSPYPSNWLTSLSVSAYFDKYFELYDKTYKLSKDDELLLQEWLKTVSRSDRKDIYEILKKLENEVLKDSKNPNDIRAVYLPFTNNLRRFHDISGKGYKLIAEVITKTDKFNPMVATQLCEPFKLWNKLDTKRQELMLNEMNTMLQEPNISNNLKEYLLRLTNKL

[4] = viability of PTEN-deleted HCT116 cells – cell-based, HCT116 PTEN knockout, dose response (AID 1047); assay type: functional;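 also: HCT116 colon tumor cells with PTEN knocked out; cells exposed to compound for 60 hours before readout; potency for loss of cell viability measured by luminescence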
Streptococcus = experiment: GAS UMAA2166 growth inhibition – luminescence, BacTiterGlo, counter-screen for streptokinase expression inhibitor project, dose response (AID 1915); assay type: functional, organism-based;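 also: potency for reduction of bacterial viability or growth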
[5] = Luminescence Cell-Based Dose Response HTS to Identify Inhibitors of 5'UTR Stem-Loop Driven Prion Protein mRNA Translation in H4 Neuroglioblastoma Cells. [Related pubchem assays: 1827 (Project Summary), 1813 (Primary HTS)]; assay type: functional
Paired box protein Pax-8 = Paired box protein Pax-8 (Homo sapiens, UniProt Q06710); experiment: PAX8 transcriptional activity inhibition in RMG-I – RMG-I cells, luciferase, cherry-pick, dose response (AID 687027); assay type: functional, cell-based;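 also: luciferase reporter driven by Pax8 target thyroperoxidase promoter measured by SteadyGlo luminescence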
[6] = tested on: Streptococcus sp. 'group A'; experiment: Streptococcus pyogenes SK(-)GAS viability under kanamycin – luminescence, BacTiterGlo, confirmation, counter-screen for streptokinase expression inhibitor project, dose response (AID 1900); assay type: functional, organism-based
INS1 = experiment: INS-1E survival protection against cytokine death – cell-based, luminescence, retest, dose response (AID 449756); assay type: functional; details: Rattus norvegicus;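 also: cell death triggered by IL-1 beta plus TNF-alpha plus IFN-gamma mixture; protective hits raise ATP signal compared with cytokine alone wells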
[7] = reduction of Shn3 3'UTR-driven luciferase in osteoblasts – cell-based, Clone20 osteoblasts, firefly luciferase, cherry-picked, dose response (AID 624132); assay type: functional;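 also: firefly luciferase luminescence from reporter carrying the Shn3 3'UTR in osteoblasts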
[8] = alpha-synuclein stem-loop luciferase translation blockers – H4 neuroglioma cells, luminescence, confirmation (AID 1988); assay type: functional, cell-based
[9] = non-specific 3'UTR reporter inhibition in Clone20-Shn3RL – cell-based, Renilla luciferase, cherry-picked, counter-screen for Shn3 inhibitor project, dose response (AID 624133); assay type: functional
[10] = viability of HCT116 lacking mutant beta-catenin – cell-based, human colon tumor, dose response (AID 1045); assay type: functional;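 also: HCT116 colon tumor cells with beta catenin knocked out; cells exposed to compound for 60 hours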
[11] = loss of viability in HepG2 cells – cell-based, CellTiter-Glo, cherry-picked, cytotoxicity control for Shn3 inhibitor project, dose response (AID 624134); assay type: functional
Streptokinase A = target: T5, Streptokinase A (Streptococcus pyogenes serotype M1, UniProt P10520); experiment: viability-normalized secreted streptokinase activity reduction – plasminogen activation absorbance, OD405, dose response (AID 1914); assay type: functional, Streptococcus pyogenes M1 GAS;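 also: secreted streptokinase activity via plasminogen activation per viability signal from cell pellet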
T5 sequence (P10520 whole entry): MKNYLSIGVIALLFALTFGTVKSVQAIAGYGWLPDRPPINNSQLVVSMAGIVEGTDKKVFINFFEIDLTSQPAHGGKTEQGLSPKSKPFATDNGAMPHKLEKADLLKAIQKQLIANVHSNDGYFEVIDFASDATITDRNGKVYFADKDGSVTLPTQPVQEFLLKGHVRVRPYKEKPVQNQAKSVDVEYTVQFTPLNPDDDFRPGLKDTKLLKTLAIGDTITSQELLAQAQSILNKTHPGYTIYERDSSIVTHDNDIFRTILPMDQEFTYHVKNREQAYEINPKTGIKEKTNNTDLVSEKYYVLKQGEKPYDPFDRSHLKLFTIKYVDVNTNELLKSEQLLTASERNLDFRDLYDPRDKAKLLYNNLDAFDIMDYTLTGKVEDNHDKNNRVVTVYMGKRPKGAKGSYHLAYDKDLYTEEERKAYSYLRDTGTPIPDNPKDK

[12] = luciferase reporter signal suppression in cells – H4 neuroglioma cells, luminescence, dose response (AID 1990); assay type: functional, cell-based
[13] = Luminescence Cell-Based Dose Response HTS to Identify Activators of Luciferase Translation or Activity in H4 […] Cells. [Related pubchem assays: 1829 (Project Summary), 1814 (Primary HTS)]; assay type: functional
Prothrombin = Prothrombin (Homo sapiens, UniProt P00734); experiment: Thrombin 1536 HTS Dose Response Confirmation. [Related pubchem assays: 1046 (Thrombin 1536 HTS; hits were confirmed in this assay)]; assay type: functional
H4 = experiment: Luminescence Cell-Based Dose Response HTS to Identify Activators of 5'UTR Stem-Loop Driven Prion Protein mRNA Translation in H4 Neuroglioblastoma Cells. [Related pubchem assays: 1829 (Project Summary), 1814 (Primary HTS)]; assay type: functional; details: Homo sapiens
[14] = Luminescence Cell-Based Dose Confirmation HTS to Identify Activators of 5'UTR Stem-Loop Driven Alpha-Synuclein mRNA Translation in H4 Neuroglioblastoma Cells. [Related pubchem assays: 1829 (Project Summary), 1814 (Primary HTS)]; assay type: functional

Induced myeloid leukemia cell differentiation protein Mcl-1, sequence (Q07820 whole entry): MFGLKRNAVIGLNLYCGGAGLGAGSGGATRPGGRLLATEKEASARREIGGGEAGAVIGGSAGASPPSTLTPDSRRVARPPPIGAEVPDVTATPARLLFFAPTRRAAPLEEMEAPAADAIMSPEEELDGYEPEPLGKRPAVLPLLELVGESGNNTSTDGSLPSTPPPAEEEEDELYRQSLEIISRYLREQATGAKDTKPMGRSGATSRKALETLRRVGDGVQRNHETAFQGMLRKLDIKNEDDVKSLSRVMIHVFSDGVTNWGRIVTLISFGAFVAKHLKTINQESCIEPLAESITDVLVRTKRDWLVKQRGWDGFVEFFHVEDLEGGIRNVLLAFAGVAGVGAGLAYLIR
Paired box protein Pax-8, sequence (Q06710 whole entry): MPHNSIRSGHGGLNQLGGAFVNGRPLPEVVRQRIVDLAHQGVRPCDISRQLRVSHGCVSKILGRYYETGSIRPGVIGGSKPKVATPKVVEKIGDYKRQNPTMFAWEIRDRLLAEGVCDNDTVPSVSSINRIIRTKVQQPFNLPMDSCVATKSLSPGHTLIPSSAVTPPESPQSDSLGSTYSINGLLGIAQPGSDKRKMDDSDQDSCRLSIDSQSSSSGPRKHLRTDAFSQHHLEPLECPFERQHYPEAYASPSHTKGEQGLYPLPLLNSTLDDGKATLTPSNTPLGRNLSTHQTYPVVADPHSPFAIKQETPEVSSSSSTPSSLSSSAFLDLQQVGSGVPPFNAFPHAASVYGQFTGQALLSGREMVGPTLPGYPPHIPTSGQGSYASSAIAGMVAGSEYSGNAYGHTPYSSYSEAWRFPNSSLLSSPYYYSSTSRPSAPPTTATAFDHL

For `COc1ccc(CCNC(=O)COC(=O)Cc2cccc3ccccc23)cc1`, the IC50 [1] was 26.3 µM (not active).
For `CCCCc1ccc(NC(=O)CSCc2cc(=O)[nH][nH]2)cc1`, the AC50 [2] was 3.57 µM (active), the EC50 (Protein RecA) was 1.82 µM (active) and the IC50 (Leucine aminopeptidase) was 12.4 µM (active).
With `Nc1c(C(=O)O)cnc2c(-c3ccc(Cl)cc3)cnn12` the CC50 [3] was 24.6 µM (active) and the IC50 (Aminopeptidase N) was 42.4 µM (active).
For `O=C(Nc1ccc([N+](=O)[O-])cc1)Nc1nc(-c2ccc(Cl)s2)cs1`, the EC50 [4] was 0.8 µM (active), the EC50 (Streptococcus) was 81.8 µM (active) and the EC50 [5] was 8.31 µM (active). The AC50 (Paired box protein Pax-8) was 2.42 µM (active), the EC50 [6] was 6.16 µM (active) and the AC50 (INS1) was 1.54 µM (active). The AC50 [7] was 3.19 µM (active), the IC50 [1] was 5.32 µM (active) and the EC50 [8] was 8.39 µM (active). The AC50 [9] was 3.04 µM (active), the EC50 [10] was 0.991 µM (active) and the AC50 [11] was 4.82 µM (active). For the same molecule, the EC50 (Streptokinase A) was 44.8 µM (inconclusive) and the EC50 [12] was 8.65 µM (active).
For `O=C(c1ccco1)n1nc(-c2ccccc2)nc1SCc1ccccc1`, the EC50 [13] was 40.1 µM (active), the IC50 (Prothrombin) was 0.695 µM (active) and the EC50 (H4) was 19.6 µM (active). The EC50 [14] was > 120 µM (not active).
For `CCN(CC)S(=O)(=O)N1CCC(C(=O)NCC2COc3ccccc3O2)CC1` (stereo not drawn), the IC50 (Leucine aminopeptidase) was 11.3 µM (active).
For `Cc1ccc(NC(=O)CSCc2nc(O)c3nnn(Cc4ccc(F)cc4)c3n2)c(C)c1`, the IC50 (Leucine aminopeptidase) was 2.06 µM (active).
With `COC(=O)c1ccc(Cl)c(NS(=O)(=O)c2ccc3c(c2)OCCO3)c1` the IC50 (Aminopeptidase N) was 29.7 µM (active).
For `CC1=C(C)C(=O)C(CCCCC#CCCCC#CCO)=C(C)C1=O` [DOCEBENONE], the IC50 (Leucine aminopeptidase) was 53.4 µM (active).
